ChEMBL document CHEMBL1201862, “PubChem BioAssay data set” (2004)
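Where inhibition never reached the appropriate level, the endpoint shown equals the highest concentration tested. Otherwise, values were interpolated linearly from a five-concentration, 48-hour dose response in 96-well plates. The concentration for 50% growth inhibition is given as GI50.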 Activity calls are given as the source filed them. No stated cut-off is given here; in the data, active = GI50 up to about 1.1 µM and inactive = higher.

Assays:
Experiment in all cases: inhibition of tumour cell growth, NCI panel, 48 h
[1] = test system: Hs-578T
[2] = test system: M14
[3] = test system: HT-29
[4] = test system: NCI-H23
[5] = test system: U-251
[6] = test system: UACC-62
[7] = test system: K562
[8] = test system: COLO 205
[9] = test system: ACHN
[10] = test system: UO-31
[11] = test system: NCI-H226
[12] = test system: OVCAR-3
[13] = test system: OVCAR-4
[14] = test system: A498
[15] = test system: NCI-H460
[16] = test system: SN12C
[17] = test system: A549
[18] = test system: SNB-19
[19] = test system: SK-MEL-2
[20] = test system: UACC-257
[21] = test system: NCI/ADR-RES
[22] = test system: IGROV-1
[23] = test system: MCF7
[24] = test system: RPMI-8226
[25] = test system: OVCAR-8
[26] = test system: HCT-116
[27] = test system: SK-OV-3
[28] = test system: EKVX
[29] = test system: HL-60
[30] = test system: T47D
[31] = test system: LOX IMVI
[32] = test system: NCI-H522
[33] = test system: RXF 393
[34] = test system: HOP-62
[35] = test system: SW-620
[36] = test system: SF-268
[37] = test system: MDA-MB-231
[38] = test system: OVCAR-5
[39] = test system: SK-MEL-28
[40] = test system: SK-MEL-5
[41] = test system: SF-295
[42] = test system: SF-539
[43] = test system: SR
[44] = test system: DU-145
[45] = test system: SNB-75
[46] = test system: CAKI-1
[47] = test system: PC-3
[48] = test system: MDA-N
[49] = test system: HCT-15
[50] = test system: CCRF-CEM
[51] = test system: Malme-3M
[52] = test system: HOP-92
[53] = test system: 786-0
[54] = test system: KM12
[55] = test system: MOLT-4
[56] = test system: HCC 2998
[57] = test system: MDA-MB-435
[58] = test system: TK-10
[59] = test system: BT-549

CC1=NN(c2nc(N)nc(/C(C#N)=C/c3ccc([N+](=O)[O-])o3)n2)C(C)(C)C1
GI50 [1]: 13200 nM (inactive)
GI50 [2]: 1570 nM (inactive)
GI50 [3]: 2090 nM (inactive)
GI50 [4]: 3450 nM (inactive)
GI50 [5]: 5210 nM (inactive)
GI50 [6]: 2190 nM (inactive)
GI50 [7]: 315 nM (active)
GI50 [8]: 1650 nM (inactive)
GI50 [9]: 1810 nM (inactive)
GI50 [10]: 2920 nM (inactive)
GI50 [11]: 2240 nM (inactive)
GI50 [12]: 3320 nM (inactive)
GI50 [13]: 10200 nM (inactive)
GI50 [14]: 17800 nM (inactive)
GI50 [15]: 2570 nM (inactive)
GI50 [16]: 1880 nM (inactive)
GI50 [17]: 13100 nM (inactive)
GI50 [18]: 15700 nM (inactive)
GI50 [19]: 6340 nM (inactive)
GI50 [20]: 10000 nM (inactive)
GI50 [21]: 10800 nM (inactive)
GI50 [22]: 2050 nM (inactive)
GI50 [23]: 1690 nM (inactive)
GI50 [24]: 3010 nM (inactive)
GI50 [25]: 2510 nM (inactive)
GI50 [26]: 1450 nM (inactive)
GI50 [27]: 21100 nM (inactive)
GI50 [28]: 3370 nM (inactive)
GI50 [29]: 2350 nM (inactive)
GI50 [30]: 2610 nM (inactive)
GI50 [31]: 1730 nM (inactive)
GI50 [32]: 1660 nM (inactive)
GI50 [33]: 1750 nM (inactive)
GI50 [34]: 17200 nM (inactive)
GI50 [35]: 1760 nM (inactive)
GI50 [36]: 3850 nM (inactive)
GI50 [37]: 1810 nM (inactive)
GI50 [38]: 1580 nM (inactive)
GI50 [39]: 5060 nM (inactive)
GI50 [40]: 5400 nM (inactive)
GI50 [41]: 16500 nM (inactive)
GI50 [42]: 3220 nM (inactive)
GI50 [43]: 2580 nM (inactive)
GI50 [44]: 6350 nM (inactive)
GI50 [45]: 2850 nM (inactive)
GI50 [46]: 1850 nM (inactive)
GI50 [47]: 9680 nM (inactive)
GI50 [48]: 3050 nM (inactive)
GI50 [49]: 1420 nM
GI50 [50]: 1300 nM (inactive)
GI50 [51]: 2010 nM (inactive)
GI50 [52]: 1950 nM (inactive)
GI50 [53]: 1570 nM (inactive)
GI50 [54]: 13900 nM (inactive)
GI50 [55]: 2260 nM (inactive)
GI50 [56]: 15800 nM (inactive)
GI50 [57]: 2390 nM (inactive)
GI50 [58]: 2000 nM (inactive)
GI50 [59]: 3340 nM (inactive)
